Measured values: patent publication US20130090329A1, “Methods and Compositions for the Treatment of Psychotic Disorders Through the Identification of the Olanzapine Poor Response Predictor Genetic Signature” (SUREGENE, LLC, priority 2011, published 2013)
Marks after values point to notes of the source that are not given here.

Experiments:
[1] = system: patients suffering from schizophrenia and related disorders; assay: CATIE study: worsening of symptoms (LOCF delta PANSS ≧0%) by OPRP status; assay type: in vivo, human; conditions: for Worsening: delta PANSS ≧0%
Protocol: (§1) A total of 738 subjects consented to provide DNA for genetic study. […] Only retrospective genetic analyses, judged to be exempt from human studies requirements by an IRB, were conducted in the current study. For the genetic analyses presented herein, the inventors combined and evaluated drug response data for both Phase I and Phase IB of the CATIE study. All tested patients were studied using well established clinical endpoints comparing baseline, intermediate, and last observation carried forward (LOCF) for the PANSS scores using CATIE data. LOCF analysis is a commonly used clinical endpoint for clinical trials for neuropsychiatric drugs, with particular changes in PANSS scores being used to indicate clinically significant response (Leucht et al., 2009).
The inventors also examined the impact of the OPRP status on whether patients' symptoms actually got worse when treated with olanzapine. This is an important safety consideration for antipsychotic drugs response, and failure of a drug to display the desired clinical response on a specific subset of patients could impact the drug label, being contraindicated for a particular subset of patients (see Example 5: “Risk Management Involving the OPRP Genetic Test). […]

[2] = system: patients suffering from schizophrenia and related disorders; assay: CATIE study: percent change in total PANSS from baseline to LOCF, segmented by OPRP genetic signature status; assay type: in vivo, human; conditions: for Effect size (mean difference / standard deviation): CATIE
Text: Genotype and phenotype data for the CATIE trial were recently made available to qualified researchers through the NIMH Center for Collaborative Genetic Studies on Mental Disorders. The sample consisted of a total of 738 patients. For the present study, the inventors assigned OPRP status to 628 subjects, including 411 subjects of self-reported European ancestry and 217 subjects of self-reported African ancestry. Further details on the patient population are described in the study by Sullivan and coworkers (Sullivan et al., 2008). The CATIE SNP genotype data evaluated included a total of 492,900 SNPs located throughout the genome.
The design of the CATIE study has been described in detail by others (Lieberman et al., 2005; Stroup et al., 2003). […] Subjects that failed Phase I treatment with the typical antipsychotic perphenazine were treated differently than those subjects that failed phase I treatment with an atypical antipsychotic. Instead of entering into Phase II of the trial, subjects who switched from perphenazine entered Phase IB. […] Subjects who failed Phase IB then entered Phase II.
as §1
Using the clinical data from the CAIE trial, the inventors derived several different metrics used for quantifying response in clinical trials of antipsychotic medications. The most commonly used psychometric instrument is the Positive and Negative Syndrome Scale (PANSS), a 30-item semi-quantitative instrument scored by clinical professionals (Kay et al., 1987). The greater the decrease in PANSS score, the better the clinical response. The most direct measure of clinical response is absolute change in PANSS score. In addition to absolute change, the improvement is often reported as a percentage change from baseline PANSS score.
To examine the relationship of genotypes to drug response the inventors used the publically available PLINK software (Purcell et al., 2007; available on the world wide web at pngu.mgh.harvard.edu/purcell/plink/) and Helix tree (Version 6.4.1; Golden Helix, Bozeman, Mont.). The inventors used Last observation Carry Forward (LOCF) delta PANSS values as a measure of response to antipsychotic treatment. […] The inventors refined the test further by conducting association analysis on using only those subjects that comprised the TT genotype of rs11960832.
As mentioned previously, the mean change in absolute or percent PANSS provides an important measure of efficacy in patients undergoing antipsychotic treatments. Indeed, many pivotal trials in the psychosis field used absolute and/or percentage change in PANSS Score as the primary endpoint (Leucht et al., 2009).

[3] = among antipsychotic medications; cited from earlier work
[4] = system: patients suffering from schizophrenia and related disorders; assay: CATIE study: categorical responders (change in total PANSS ≦−10%, LOCF) by OPRP status; assay type: in vivo, human; conditions: for Responders: change in total PANSS ≦−10%
Protocol: A total of 738 subjects consented to provide DNA for genetic study. Details regarding SNP genotyping and quality control have been recently published (Sullivan et al., 2008). Only retrospective genetic analyses, judged to be exempt from human studies requirements by an IRB, were conducted in the current study. For the genetic analyses presented herein, the inventors combined and evaluated drug response data for both Phase I and Phase IB of the CATIE study. All tested patients were studied using well established clinical endpoints comparing baseline, intermediate, and last observation carried forward (LOCF) for the PANSS scores using CATIE data. LOCF analysis is a commonly used clinical endpoint for clinical trials for neuropsychiatric drugs, with particular changes in PANSS scores being used to indicate clinically significant response (Leucht et al., 2009). […] As described above CATIE patients were studied using well established clinical endpoints comparing baseline, intermediate, and last observation carried forward (LOCF) for the PANSS scores.

[5] = Caucasian patients, OPRP Negative, LOCF
[6] = Caucasian patients, OPRP Positive, LOCF
[7] = OPRP Negative subjects, CATIE Phase I and IB, more negative = greater improvement
[8] = OPRP Positive subjects, CATIE Phase I and IB, more negative = greater improvement

Row | Structure (SMILES) | Incidence of metabolic side-effects [3] | Number of individuals with change in total PANSS ≦−10% (responders) ([4]; OPRP Negative) | Number of individuals with change in total PANSS ≧−10% (non-responders) ([4]; OPRP Negative) | Responders ([4]; OPRP Negative) | Number of individuals with change in total PANSS ≦−10% (responders) ([4]; OPRP Positive) | Number of individuals with change in total PANSS ≧−10% (non-responders) ([4]; OPRP Positive) | Responders ([4]; OPRP Positive) | Number of individuals with delta PANSS ≦0% (non-worsening) ([1]; OPRP Negative, LOCF) | Number of individuals with delta PANSS ≧0% (worsening symptoms) ([1]; OPRP Negative, LOCF) | Worsening ([1]; OPRP Negative, LOCF) | Number of individuals with delta PANSS ≦0% (non-worsening) ([1]; OPRP Positive, LOCF) | Number of individuals with delta PANSS ≧0% (worsening symptoms) ([1]; OPRP Positive, LOCF) | Worsening ([1]; OPRP Positive, LOCF) | DELTA PANSS % (mean change in PANSS score from baseline to LOCF) [2, 7] | DELTA PANSS % (mean change in PANSS score from baseline to LOCF) [2, 8] | also measured
1 | CN1CCN(C2=Nc3cc(Cl)ccc3Nc3ccccc32)CC1 [Clozapine] | greatest incidence of metabolic side-effects | – | – | – | – | – | – | – | – | – | – | – | – | – | – | Number of individuals with delta PANSS ≦0% (non-worsening) [1, 5]: 25; Number of individuals with delta PANSS ≧0% (worsening symptoms) [1, 5]: 9; Worsening ([1]; Caucasian patients, OPRP Negative): 26%*; Number of individuals with delta PANSS ≦0% (non-worsening) [1, 6]: 0; Number of individuals with delta PANSS ≧0% (worsening symptoms) [1, 6]: 2; Worsening ([1]; Caucasian patients, OPRP Positive): 100%; DELTA PANSS % (mean change in PANSS score from baseline to LOCF) ([2]; Caucasian subjects, OPRP Negative): −13.1%; DELTA PANSS % (mean change in PANSS score from baseline to LOCF) ([2]; Caucasian subjects, OPRP Positive): 28%
2 | Cc1cc2c(s1)Nc1ccccc1N=C2N1CCN(C)CC1 [Olanzapine] | greatest incidence of metabolic side-effects | 73 | 66 | 53%* | 1 | 25 | 4% | 113 | 26 | 19%* | 8 | 18 | 69% | −11.6% | 4.3% | Effect size, olanzapine-treated OPRP positive patients compared to various other OPRP-drug combinations ([2]; CATIE study, range over comparisons): 0.2 to 1.0; Mean difference in delta PANSS: olanzapine-treated OPRP positive group minus comparator group ([2]; comparator = olanzapine-treated OPRP negative subjects): 15.9; Effect size (mean difference / standard deviation) ([2]; olanzapine OPRP positive versus olanzapine OPRP negative): 1.0^a; Effect size (mean difference / standard deviation) ([2]; olanzapine OPRP positive versus olanzapine OPRP negative, listed as olanzapine): 1.0
3 | OCCN1CCN(CCCN2c3ccccc3Sc3ccc(Cl)cc32)CC1 [Perphenazine] | – | 39 | 71 | 35%^+ | 5 | 7 | 42%^^ | 65 | 45 | 41%^+++ | 9 | 3 | 25%^ | −4.2^+++ % | −7.7^ % | Mean difference in delta PANSS: olanzapine-treated OPRP positive group minus comparator group ([2]; comparator = OPRP positive subjects treated with the labelled drug, positive = poorer response to olanzapine): 12; Effect size (mean difference / standard deviation) ([2]; olanzapine OPRP positive versus labelled drug OPRP positive): 0.7
